The text below walks through data of PubChem BioAssay (NCI).

Common to all, as to assay: NCI-60 cell line screen, 48 h
Test [1] deals with HCC-2998 colon.
Test [2] has as its system RPMI-8226 leukemia.
Test [3] has as its system A498 renal.
The test system of test [4] is SNB-19 CNS.
The subject of test [5] is NCI/ADR-RES ovarian.
In test [6] the test system is UACC-62 melanoma.
Test [7] deals with OVCAR-4 ovarian.
The subject of test [8] is OVCAR-3 ovarian.
In test [9] the test system is DU-145 prostate.
In test [10] the test system is SW-620 colon.

“And” between values parts separate entries of the source, which are not always exact repeats. Equal values may be shown once.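 Grown in 96-well plates, cells were treated for 48 hours with each compound at five concentrations. Insufficient inhibition: endpoint recorded as highest concentration tested. Abbreviation: GI50, concentration required for 50% inhibition of growth. TGI marks complete inhibition of growth.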 Some results are limits rather than exact numbers.

In the case of `CN1C(=O)C2(c3ccccc31)N(c1ccc(Cl)cc1)C(=O)C2(c1ccccc1)c1ccccc1` (centres undefined), the GI50 is 66 µM in test [1]; 6.25 µM in [2]; 34.3 µM in test [3]; 22.4 µM in [4]; 34.7 µM in test [5]; 39.7 µM in [6]. In addition, the GI50 is 5.1 µM in test [7], 20.2 µM in [8], 99 µM in test [9] and over 100 µM in [10]. In addition, the TGI in test [1], in test [2], in test [3], in test [4], in test [5] and in test [6] was over 100 µM each time. The TGI in test [7], in [8], in test [9] and in [10] was over 100 µM throughout.
Take `CC1=C(C(=O)Nc2ccc(Cl)c(C(=O)OC(C)C)c2)SCCO1`: the TGI in test [1] is 75 µM; in [2], 67.7 µM; in test [3], 90.9 µM; in [4], over 77.4 µM; in [5], over 91.8 µM; in [6] it was 93.2 µM. For the same molecule, the TGI in [7] is over 97.6 µM; in test [8] it was over 100 µM; in [9] it was over 100 µM; in test [10], over 79.4 µM.
Regarding `CCOC(=O)c1cnc2c(C)cccc2c1Nc1ccc(C(C)=O)cc1`, the GI50 is 53.3 µM in test [1]; 30.9 µM in test [2]; 11.9 µM in test [3]; 40.2 µM in test [4]; 16.5 µM in [5]; 11.4 µM in test [6]. Moreover, the GI50 is 13.5 µM in [7], 26.1 µM in [8], 33.3 µM in test [9] and 92.6 µM in test [10]. Besides, the TGI in test [1] is over 100 µM; in test [2], over 100 µM; in [3] it was 63.4 µM; in test [4] it was over 100 µM; in test [5] it was 72.5 µM; in test [6] it was over 100 µM. Moreover, the TGI was 55.3 µM in test [7], over 100 µM in test [8], over 100 µM in test [9] and over 100 µM in [10].
For `NS(=O)(=O)OCCCCCCCOS(N)(=O)=O`, the TGI in test [1] came to 718 µM; in test [2], 1330 µM; in test [3], 770 µM; in test [4], 1250 µM; in test [5], 1050 µM; in test [6] it was 412 µM. The TGI in test [7] was found to be 1110 µM; in test [8], 835 µM; in test [9] it was 873 µM; in test [10], 1280 µM.
Take `O=C(COc1cccc(/C=C2\CSc3ccccc3C2=O)c1)Nc1nccs1`: the GI50 in test [1] was 1.7 µM; in [2], 0.653 µM; in test [3], 15.3 µM; in [4], 6.48 µM; in test [5], 3.2 µM; in test [6], 1.48 µM. Moreover, the GI50 in [7] was 3.94 µM; in test [8], 1.62 µM; in test [9], 1.94 µM; in test [10], 1.95 µM. Besides, the TGI in [1] amounted to 3.13 µM; in [2] it was 2.79 µM; in [3], 28.9 µM; in [4], 19.6 µM; in test [5] it was 11 µM; in test [6], 3.12 µM. Further, the TGI in test [7] is 19.4 µM; in test [8], 2.98 µM; in test [9], 3.99 µM; in test [10], 4.52 µM.
Take `CC[C@H](C)[C@H](NC(=O)CN(C)C)C(=O)N(C)[C@H](C[C@@H](OC(C)=O)c1nc(C(=O)NC23CC(C(=O)OC)(C2)C3)cs1)C(C)C`: the GI50 was 0.49 µM in test [1]; 0.0845 µM in test [2]; 1.47 µM in test [3]; 0.852 µM in test [4]; over 21.4 µM in test [5]; 0.237 µM in test [6]. Besides, the GI50 was 4.64 µM in test [7], 0.0804 µM in [8], 0.183 µM in [9] and 0.163 µM in test [10]. In addition, the TGI in test [1], in [2], in [3], in test [4], in test [5] and in test [6] was over 25 µM throughout. Also, the TGI in test [7] was over 25 µM; in test [8], over 7.19 µM; in test [9] it was over 25 µM; in [10], over 25 µM.
`CSc1ccc2c(c1)C(N1CCN(C)CC1)Cc1ccccc1S2` (centres undefined): the GI50 in test [1] is 1.65 µM; in test [3], 1.37 µM; in test [4] it was 2.36 µM; in [5] it was 1.96 µM; in test [6] it was 1.8 µM; in test [7], 2.6 µM. In addition, the GI50 in test [8] is 2.67 µM; in test [9], 2.04 µM; in test [10], 1.69 µM. Besides, the TGI in test [1] was 25.9 µM and 3.08 µM; in [2] it was 4.12 µM and 4.58 µM; in test [3], 25.8 µM and 2.8 µM; in [4], 28.5 µM and 6.13 µM; in [5], 19 µM and 4.58 µM; in test [6], 4.2 µM and 3.3 µM. The TGI was 9.66 µM and 9.89 µM in test [7]; 28 µM and 7.22 µM in test [8]; 31.4 µM and 4.38 µM in [9]; 20.6 µM and 3.42 µM in [10].
For the molecule `Cn1c(-c2c(N)n(CCCN3CCOCC3)c3nc(C#N)c(C#N)nc23)nc2ccccc21`, the GI50 in test [1] was 20.1 µM; in test [2], 0.909 µM; in [3] it was 39.4 µM; in test [4], 23.8 µM; in test [5] it was over 28.3 µM; in test [6], over 34.5 µM. For the same molecule, the GI50 in test [7] was 17.9 µM; in test [8] it was 1.8 µM; in test [9] it was 3.68 µM; in [10], 1.74 µM. Also, the TGI in test [1] is 40 µM; in test [2], over 52.7 µM; in test [3], 92.5 µM; in test [4], over 100 µM; in [5], over 100 µM; in test [6], over 100 µM. Also, the TGI in test [7] is over 100 µM; in [8], 13.4 µM; in [9], 29.2 µM; in test [10], over 45 µM.
